Patent publication US20240065988A1, “COMBINED USE OF KETAMINE AND RETIGABINE (EZOGABINE) FOR THE TREATMENT OF PSYCHIATRIC DISORDERS” (Yeda Research and Development Co. Ltd., priority 2021, published 2024)
“Also recorded” adds a separate entry of the source.

Key:
[1] = test system: Kcnq2 mRNA in glutamatergic neurons of the vHipp; assay: qPCR mRNA levels in FACS-sorted glutamatergic neurons (Ai9+/tdTomato+) and remaining cells (Ai9-/tdTomato-) of Nex-Cre-Ai9 mice; type: in vivo, mouse; settings: for mRNA levels of 8 top DEGs: ketamine vs saline
Source text: Conditional transgenic mice expressing tdTomato in glutamatergic neurons of the forebrain (Nex-Cre;Ai9) were generated by crossing homozygous Nex-Cre mice [described in S. Goebbels et al., Genesis (2006) 44: 611-621] with homozygous Ai9 mice [Gt(ROSA)26Sortm9(CAG-tdTomato)Hze] [described in L. Madisen et al., Nat Neurosci (2010) 13: 133-140].
In order to further investigate these findings, a conditional reporter mouse line (Nex-Cre-Ai9) was generated where most glutamatergic neurons of the forebrain, including the hippocampus, are fluorescently labeled by tdTomato (Ai9) except for neurons in the dentate gyrus where Neurod6, the promoter used to target glutamatergic neurons driving Cre expression, is not expressed (FIG. 12) [J. Hartmann et al., Mol Psychiatry (2017) 22: 466-475]. Following the same paradigm used in the original cohort, mice were group-housed and injected with (R,S)-ketamine (10 mg/kg BW) or a saline vehicle control. The vHipp of these mice was dissected […] later (i.e. 2 days). Single-cell suspensions were prepared and individual cells were sorted using fluorescence activated cell sorting (FACS) (FIG. 2A) into two separate pools of cells from each mouse. One pool contained glutamatergic neurons (Ai9+) and a second contained all remaining cell types of the vHipp (Ai9-) (FIG. 2A and FIGS. 13A-C). […] These two separate pools of cells were then used to validate the scRNA-seq findings in glutamatergic neurons at the population level using quantitative real-time polymerase chain reaction (qPCR).
Next, it was tested whether retigabine can produce similar synergistic effects in combination with traditional antidepressants.

[2] = test system: ventral hippocampus bulk tissue; assay: Bulk qPCR mRNA levels in brain punches (tissue homogenates) from the vHipp; type: in vivo, mouse; settings: ketamine 10 mg/kg, 2 days
[3] = test system: KCNQ channel (KCNQ2/3, M-current); assay: Ex vivo patch-clamp recording of IM current density in CA1 pyramidal neurons of acute vHipp slices; set-up: species or system mouse; settings: ketamine 10 mg/kg BW i.p., 36 hours before slice preparation vs saline
[4] = test system: mice (C57BL/6N); assay: Forced swim test (FST), pharmacological manipulation of KCNQ; type: in vivo, mouse
Procedure: C57BL/6N and CD-1 (ICR) male mice aged 10 weeks old were used in these experiments. Ketamine hydrochloride (Ketaset, Zoetis, Germany) was diluted in 0.9% NaCl solution (saline) and administered i.p at 1, 5 or 10 mg/kg BW, depending on the experiment design. The KNCQ inhibitor, XE991 (Alomone labs; Cat #: X-100) was diluted in 5% DMSO and administered i.p at 1 or 3 mg/kg BW. The KCNQ activator, Retigabine (Alomone labs; Cat #: R-100), was diluted in 5% DMSO and administered i.p at 1 or 5 mg/kg BW. As control, mice were injected with a DMSO-saline solution (5% DMSO). For all experiments, mice were tested 30 minutes after injection in the FST or over a period of 36 hours after injection in the social boxes.
Previous studies in rodents have shown that KCNQ function can be regulated with highly-specific agonists and antagonists [V. Barrese et al., Annu Rev Pharmacol Toxicol (2018) 58: 625-648]. To further explore the KCNQ channel as a potential therapeutic target of ketamine, it was examined whether pharmacological inhibition of KCNQ alone or in combination with ketamine had any effects on behavior. To accomplish this, a new cohort of mice received two injections with a combination of drugs. […] To assess the effects of ketamine, XE991 (KCNQ inhibitor), and its combination, these mice were exposed to a FST (FIG. 7A, left). […] The inventors then sought to test whether the effects of ketamine could be mimicked, increased or amplified using retigabine, also known as ezogabine, a selective KCNQ (Kcnq2/3) channel activator. Similarly to the previous experiment, mice were treated with saline, (R,S)-ketamine (10 mg/kg BW), or ketamine in combination with two different concentrations of retigabine (1 and 5 mg/kg BW) (FIG. 7A, right).
Next, it was examined whether retigabine could increase the sustained antidepressant-like effects produced by a single injection of ketamine in mice. Accordingly, a new cohort of mice were treated with a single dose of saline, ketamine, or ketamine in combination with retigabine (1 mg/kg) and antidepressant-like behaviors were assessed using the FST, 5—and 7-days post-injection (FIG. 8A). […] Next, as a potential therapeutic strategy for major depressive disorder (MDD), the synergistic effects of ketamine and retigabine was further investigated by testing whether or not retigabine can increase the antidepressant-like effects produced by ketamine in mice. […] Next, it was tested whether retigabine can produce similar synergistic effects in combination with traditional antidepressants. […] Lastly, using a new cohort of Nex-Cre-Ai9 mice, it was tested whether the adjunctive treatment of ketamine with retigabine, or escitalopram alone, could modify the expression of Kcnq2 mRNA in FACS sorted cells from the vHipp (FIG. 8F).

[5] = test system: mice; assay: Home cage activity (locomotion); type: in vivo, mouse; settings: 60-min period following treatment and 2 days post injection
Procedure: The home cage activity was measured with the Mouse-E-Motion infrared-detecting devices (Infra-e-motion, Germany). Mice were single housed in fresh cages, and a metal food tray was employed to hold the devices in place. The base bedding was kept, but extra nesting materials that could conceal the animal were removed. The readout lasted 2 days (post-injection) during which time the animals were not disturbed. Locomotor activity was detected in 5-minute increments and averaged by the hour. The final analysis was applied to the first 60-minute period and the 48 hours (2 days), post injection.

[6] = test system: CD-1 mice; assay: Social Box (SB) behavioral response, ketamine response score P-KET (PLS-DA); type: in vivo, mouse
[7] = test system: Kcnq2 mRNA; assay: Kcnq2 mRNA (qPCR) in the vHipp of CSDS mice, FACS-sorted cells and bulk; settings: ketamine vs saline

CNC1(c2ccccc2Cl)CCCCC1=O (racemic) [ketamine, (R,S)-ketamine]
Kcnq2 mRNA fold change (FC) after ketamine treatment ([1]; Ai9+ cells, ketamine 10 mg/kg BW vs saline, 36 hours, p<0.001): 2.2 | mRNA levels of 8 top DEGs ([1]; Ai9+ cells): significantly dysregulated | mRNA levels of 8 top DEGs ([1]; Ai9- cells): No significant differences | mRNA expression of Kcnq3 after ketamine treatment ([1]; any of the experiments: scRNA-seq, FACS-sorted cells, primary neurons (Table 2B, FIGS. 17A-C)): no significant differences | Kcnq2 mRNA ([1]; glutamatergic neurons (tdTomato+) of the vHipp, two days after treatment, ketamine 10, escitalopram 10, retigabine 1 mg/kg/BW): significant increase of Kcnq2 mRNA | total number of Ai9+ sorted cells, ketamine vs saline ([1]; ketamine 10 mg/kg BW, 36 hours): No significant differences | bulk mRNA expression of the 8 genes, ketamine vs saline [2]: did not reach statistical significance | IM current density [3]: significant increase in IM current density | immobility time during the FST ([4]; (R,S)-ketamine 10 mg/kg/BW, dose series (FIG. 8E, FIG. 26A)): significant reduction of immobility time | antidepressant-like effects in the FST ([4]; (R,S)-ketamine 1 and 5 mg/kg/BW): failed to produce antidepressant-like effects | immobility time during the FST ([4]; ketamine 10 mg/kg BW alone vs saline (FIGS. 23A-B)): significant decrease in immobility time; also recorded: significant effect | FST effect at day 7 post-injection ([4]; single dose of ketamine alone): disappeared by day 7 | duration of the FST effect post-injection ([4]; single dose of ketamine alone): up to five days | immobility time during the FST, sustained effect ([4]; single dose of ketamine alone, several days post-injection (day 5)): significant decrease in immobility time | locomotor activity (home cage), ketamine vs saline [5]: no differences in total activity between groups; also recorded: no significant difference in the locomotion activity | response to ketamine (P-KET) in the SB vs saline ([6]; ketamine 10 mg/kg): significant difference | SB behavioral readouts (PLSDA classifier) ([6]; ketamine 10 mg/kg/BW i.p.): spent more time exploring in an open area of the SB arena; also recorded: more social and anxiolytic behaviors | Kcnq2 mRNA expression ([7]; bulk mRNA): no significant increase of Kcnq2 mRNA | Kcnq2 mRNA expression ([7]; glutamatergic neurons (tdTomato+)): significantly increased to baseline levels | Kcnq2 mRNA expression ([7]; tdTomato negative cells): no significant differences
